The results in this text go back to patent US20100047327A1, “Adjuvant for Transdermal or Transmucosal Administration and Pharmaceutical Preparation Containing the Same” (priority 2007, published 2010).

The test system of data set [1] is OVA specific IgG antibody. Briefly: OVA specific IgG antibody titer by ELISA, intracutaneous OVA plus transdermal adjuvant. It counts as in vivo, BALB/c mouse. The conditions noted are these: for Antibody titer (×10^4): OVA 10 μg/head intracutaneous, then 25 μL adjuvant applied transdermally, dosing at 0, 2, 4 weeks, data after five weeks; for immune response of the antigen IgG: intracutaneous OVA plus transdermal adjuvant on intact skin, in words. How it is done: OVA (an antigen: Ovalbumin, Sigma Company) was prepared by dissolving it in physiological saline to give 10 μg/head, and to the OVA alone group, 25 μL of OVA aqueous solution was administered intracutaneously. To the group in which various kinds of adjuvants (lauryl alcohol, oleyl alcohol, isostearyl alcohol, octyl dodecanol, polyethylene glycol monolaurate and Freund complete adjuvant (FCA)) were used in combination, immediately after OVA solution was administered intracutaneously, 25 μL of each adjuvant solution was administered (applied) transdermally on the abdominal skin surface. Administration was carried out 0, 2 and 4 weeks later, and blood collection was carried out 2, 4 and 5 weeks later, and OVA specific IgG antibody titer after 2, 4 and 5 weeks was measured by ELISA.
For orientation: ELISA stands for enzyme-linked immunosorbent assay.

Data set [2] deals with OVA specific IgG antibody. Put plainly: OVA specific IgG antibody titer, microneedle coated with antigen emulsion. The data set is classed as in vivo, hairless rat. The conditions noted are these: microneedle coated with emulsion antigen solution:oil or alcohol:Tween 80 1:1:0.01, OVA 2 mg/patch, two hours; FIG. 4. As for the experimental part: OVA was prepared in the abdomen of the male hairless rat of seven to eight weeks old to give 2 mg/patch, and in the microneedle (OVA+5% polyvinyl alcohol) group, the needle part of the microneedle was coated with an antigen and 5% polyvinyl alcohol liquid [mixed in antigen solution:10% polyvinyl alcohol=1:1], and punctured for two hours. In addition, in microneedle (OVA+olive oil) or (OVA+lauryl alcohol) group, emulsion [antigen solution:olive oil or lauryl alcohol:surfactant (Tween 80)=1:1:0.01] was coated on the needle of the microneedle and punctured it for two hours. Administration was carried out 0, 2 and 4 weeks later, and blood collection was carried out 2, 4 and 5 weeks later, and OVA specific IgG antibody titers were measured by ELISA.

In data set [3] the test system is OVA specific IgG antibody. The description is as above. The data set is classed as in vivo, BALB/c mouse. The conditions noted are these: microneedle coated with emulsion antigen solution:alcohol:Tween 80 1:1:0.01, OVA 0.1 mg/patch, two hours; FIG. 5. How it is done: In addition, in microneedle (OVA+lauryl alcohol or OVA+oleyl alcohol) group, emulsion [antigen solution:lauryl alcohol or oleyl alcohol:surfactant (Tween 80)=1:1:0.01] was coated on the needle of the microneedle and punctured it for two hours. Administration was carried out 0, 2 and 4 weeks later, and blood collection was carried out 2, 4 and 5 weeks later, and OVA specific IgG antibody titers were measured by ELISA.

The nature of data set [4]: Skin irritation score, intracutaneous versus transdermal administration. The data set is classed as in vivo, BALB/c mouse. Also on record: Skin irritation score Intracutaneous administration: key to the marks not given beside the values. The note with it: for Skin irritation score Transdermal administration: 50 μL of acetone solution (50%) applied transdermally.
Data set [5] concerns OVA specific IgG antibody. Briefly: OVA specific IgG antibody titer, antigen-coated microneedle after lauryl alcohol applied to skin. The note with it: LA applied to skin before puncture with OVA-coated microneedle (2 mg/patch, two hours); FIG. 3. The data set is classed as in vivo, hairless rat. As for the experimental part: OVA was prepared in the abdomen of the male hairless rat of seven to eight weeks old to give 2 mg/patch, and in the microneedle group, the needle part of the microneedle was coated with an antigen and 5% polyvinyl alcohol liquid, and physiological saline was dropped on the skin side, and punctured for two hours. In addition, in microneedle+lauryl alcohol group, lauryl alcohol was applied to skin beforehand, physiological saline was dropped on the skin side, and the needle of the microneedle coated with the above-described antigen and 5% polyvinyl alcohol liquid was punctured for two hours. Administration was carried out 0, 2 and 4 weeks later, and blood collection was carried out 2, 4 and 5 weeks later, and OVA specific IgG antibody titers were measured by ELISA.

In another data set the test system is OVA. Put plainly: Antibody titer after oral mucosal administration of OVA plus LA emulsion. The note with it: OVA 2500 μg/head, LA groups (20) and (50), boost after one week, blood after two weeks; FIG. 7. The data set is classed as in vivo, BALB/c mouse.
For data set [6], the system named is MHC Class II molecule of the lymph cell. Put plainly: Expression of MHC Class II molecule of lymph cells by flow cytometry after transdermal administration of adjuvant. It counts as in vivo, BALB/c mouse. The note with it: FIG. 1; for number of the lymph cells expressing an MHC Class II molecule: 50 μL of acetone solution (50%) applied transdermally to shaved abdomen, lymph node five days later.

The subject of a further data set is influenza H3N2. Briefly: Antibody titer after transnasal administration of influenza H3N2 antigen plus LA. The note with it: influenza H3N2 1 μg/head, antigen solution:LA:Tween 80 9:1:0.05; FIG. 6.
The subject of data set [7] is OVA specific IgG antibody. Put plainly: OVA specific IgG antibody titer by ELISA, OVA/LA emulsion with microneedle, skin abrading or iontophoresis. It counts as in vivo, BALB/c mouse. The note with it: FIG. 2. As for the experimental part:
OVA was prepared to give 100 μg/head, and to the OVA alone group, OVA aqueous solution was applied, and in the group in which lauryl alcohol (LA) was used in combination, the solution in which OVA solution, LA and Tween 20 (emulsifier) was mixed in the ratio of 1:1:0.01 which was emulsified was prepared and used. In the microneedle application group, 1 cm^2 of a microneedle (needle length: about 200 μm, 400 needles/cm^2) was punctured to abdominal skin that had been shaved beforehand, thereafter 50 μL of the above-mentioned emulsion solution was applied immediately. In addition, in skin abrading treatment group, skin was abraded five times using 3M RED Dot™ 2236 instead of a microneedle, thereafter 50 μL of the emulsion solution was applied. In iontophoresis application group, 50 μL of the emulsion solution was applied to shaved abdominal skin, thereafter an iontophoresis preparation (a non-woven fabric preparation: Ag, Ag/AgCl 1 cm^2) in which physiological saline was impregnated to the non-woven fabric was affixed in the applied part, and a direct current (0.4 mA/patch) was applied for one hour. Administration was carried out 0, 2 and 4 weeks later, and blood collection was carried out 2, 4 and 5 weeks later, and OVA specific IgG antibody titers were measured by ELISA.

Method for influenza H3N2: To a male BALB/c mouse of seven to eight weeks old, under inhalation anesthesia (Sevofrane) with matching with breathing, 50 μL of antigen (influenza H3N2 (Biogenesis company): 1 μg/head) was administered to a nose by dripping (transnasal (antigen)). The antigen+LA, [mixed in antigen solution:LA:surfactant (Tween 80)=9:1:0.05] was administered to a nose by dripping (transnasal (antigen+LA)).
In addition, in the intracutaneous treatment group, the abdomen was shaved under Nembutal anesthesia, 50 mL of antigen (influenza H3N2: 0.07 μg/head) was administered intracutaneously (intracutaneous (antigen)). The antigen+LA, [mixed in antigen solution:LA:surfactant (Tween 80)=1:1:0.01] was administered intracutaneously (intracutaneous (antigen+LA)). Boost was made in the same condition 2 and 4 weeks after the first time administration, and blood was collected from fundus after 2, 4 and 5 weeks and antibody titers were measured.

`CCCCCCCCCCCCO` [Lauryl alcohol, lauryl alcohol]: the “Antibody titer (×10^4)” value in data set [1] is reported as 2.1 ×10^4. Besides, in [1], the “immune response of the antigen IgG” value is on record as “highest immune response”. In addition, the “OVA specific IgG antibody titer” value in data set [2], in data set [3] and in [5] was “remarkably increased” in each case. Further, the “Skin irritation score Transdermal administration” value in data set [4] is on record as “not detected”. For the same compound, the “antibody titer, oral mucosal administration” value in the data set on OVA is recorded as “increase of the antibody titer was observed depending on the LA concentration”. The “number of the lymph cells expressing an MHC Class II molecule” value (from here on “number”) in data set [6] is given as “remarkable increase”. In addition, in data set [6] (transdermal administration), the “adjuvant effect (MHC Class II expression), comparison among adjuvants” value is on record as “most remarkable”. For the same compound, in the data set on influenza H3N2, the “antibody titer, transnasal (antigen+LA) versus antigen alone” value is listed as “increase of the antibody titer was observed”. Moreover, the “antigen specific IgG, iontophoresis (IP+LA)” value in data set [7] (OVA 100 μg/head, OVA:LA:Tween 20 1:1:0.01 emulsion, 0.4 mA/patch for one hour, four weeks later) is listed as “highest immune response”. The “antigen specific IgG, skin abrading pre-treatment (abrading+LA)” value in data set [7] (OVA 100 μg/head, emulsion applied after abrading, four weeks later) is given as “high immune response”. Besides, the “antigen specific IgG, microneedle (microneedle+LA)” value in data set [7] (OVA 100 μg/head, emulsion applied after microneedle puncture, four weeks later) is listed as “high immune response”. Further, the “antibody titer compared to antigen administered alone” value in [7] (lauryl alcohol used together with OVA) is recorded as “significant increase”.

For the compound polyethylene glycol monolaurate, the “Antibody titer (×10^4)” value in data set [1] is on record as 0.9 ×10^4. In data set [4], the “Skin irritation score Transdermal administration” value is recorded as “not detected”.

As to `CCCCCCCC/C=C\CCCCCCCCO` [Oleyl alcohol, oleyl alcohol], in [1], the “Antibody titer (×10^4)” value was 2.1 ×10^4 and the “immune response of the antigen IgG” value is given as “highest immune response”. For the same compound, the “OVA specific IgG antibody titer” value in [3] was “remarkably increased”. Besides, in data set [4] (mouse, in vivo), the “Skin irritation score Intracutaneous administration” value is recorded as “+++”. Besides, the “number” value in data set [6] was “remarkable increase”.

For sorbitan monolaurate, the “Skin irritation score Transdermal administration” value in data set [4] is reported as “not detected”. In addition, the “number” value in [6] is reported as “remarkable increase”.

With `CC(C)CCCCCCCCCCCCCCCO` [Isostearyl alcohol, isostearyl alcohol], in data set [1], the “Antibody titer (×10^4)” value is 1.3 ×10^4. Also, the “Skin irritation score Transdermal administration” value in data set [4] was “not detected”. Also, the “number” value in [6] was “remarkable increase”.

With sorbitan monooleate, in [6], the “number” value was “remarkable increase”.

For `CCCCCCCCCCC(CO)CCCCCCCC` (stereo not drawn) [Octyl dodecanol, octyl dodecanol], in data set [1], the “Antibody titer (×10^4)” value is reported as 0.6 ×10^4. Further, the “Skin irritation score Transdermal administration” value in [4] is recorded as “not detected”.

On to `CCCCCCCC/C=C\CCCCCCCC(=O)O` [oleic acid], for which, in [6], the “number” value was “remarkable increase”.
